According to ChEMBL document CHEMBL1201862, “PubChem BioAssay data set” (2004):
Calls of active or inactive are those of the source.

What was measured:
Ion channel NompC = Ion channel NompC (Danio rerio, UniProt Q7T1G6); test: Dose response cell-based high-throughput screening assay for agonists of the transient receptor potential channel N1 (TRPN1). [Related pubchem assays (depositor defined):AID1424, AID1448]; format: functional
Mucolipin-3 = molecular target: T1, Mucolipin-3 (Homo sapiens, UniProt Q8TDD5); test: Fluorescence counterscreen assay for […] agonists: dose response cell-based high-throughput screening assay to identify agonists of the transient receptor potential channel ML3 (TRPML3). [Related pubchem assays: 1424, 1448 ]; format: functional
T1 sequence (Q8TDD5 whole entry): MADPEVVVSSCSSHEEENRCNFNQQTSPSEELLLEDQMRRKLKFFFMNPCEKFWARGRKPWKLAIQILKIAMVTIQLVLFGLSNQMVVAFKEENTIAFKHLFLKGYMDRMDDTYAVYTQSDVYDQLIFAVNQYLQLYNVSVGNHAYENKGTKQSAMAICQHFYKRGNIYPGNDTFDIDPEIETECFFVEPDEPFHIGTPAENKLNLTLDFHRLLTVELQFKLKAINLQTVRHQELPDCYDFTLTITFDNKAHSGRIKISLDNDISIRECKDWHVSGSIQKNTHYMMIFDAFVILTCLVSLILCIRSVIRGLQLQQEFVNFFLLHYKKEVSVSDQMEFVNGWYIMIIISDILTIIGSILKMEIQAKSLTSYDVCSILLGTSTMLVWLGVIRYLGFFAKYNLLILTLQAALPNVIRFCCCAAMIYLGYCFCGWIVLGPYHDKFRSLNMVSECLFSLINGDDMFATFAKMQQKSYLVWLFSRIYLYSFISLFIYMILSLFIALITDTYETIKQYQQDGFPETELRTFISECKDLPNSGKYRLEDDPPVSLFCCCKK

Nonstructural protein 1 = Nonstructural protein 1 (Influenza A virus, UniProt Q194T2); format: functional, Influenza A virus (A/California/07/2009(H1N1))
Nonstructural protein 1, sequence (Q194T2 whole entry): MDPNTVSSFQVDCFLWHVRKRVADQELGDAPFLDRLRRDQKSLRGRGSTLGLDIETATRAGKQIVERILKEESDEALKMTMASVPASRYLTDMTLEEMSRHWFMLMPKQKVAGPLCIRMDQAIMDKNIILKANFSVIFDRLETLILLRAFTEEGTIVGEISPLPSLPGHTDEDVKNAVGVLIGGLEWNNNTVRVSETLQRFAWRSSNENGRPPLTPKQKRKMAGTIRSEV

NADPH oxidase 1 = molecular target: T2, NADPH oxidase 1 (Homo sapiens, UniProt Q9Y5S8); test: Luminescence-based cell-based dose response assay to identify inhibitors of NADPH oxidase 1 (NOX1).; format: functional
T2 sequence (Q9Y5S8 whole entry): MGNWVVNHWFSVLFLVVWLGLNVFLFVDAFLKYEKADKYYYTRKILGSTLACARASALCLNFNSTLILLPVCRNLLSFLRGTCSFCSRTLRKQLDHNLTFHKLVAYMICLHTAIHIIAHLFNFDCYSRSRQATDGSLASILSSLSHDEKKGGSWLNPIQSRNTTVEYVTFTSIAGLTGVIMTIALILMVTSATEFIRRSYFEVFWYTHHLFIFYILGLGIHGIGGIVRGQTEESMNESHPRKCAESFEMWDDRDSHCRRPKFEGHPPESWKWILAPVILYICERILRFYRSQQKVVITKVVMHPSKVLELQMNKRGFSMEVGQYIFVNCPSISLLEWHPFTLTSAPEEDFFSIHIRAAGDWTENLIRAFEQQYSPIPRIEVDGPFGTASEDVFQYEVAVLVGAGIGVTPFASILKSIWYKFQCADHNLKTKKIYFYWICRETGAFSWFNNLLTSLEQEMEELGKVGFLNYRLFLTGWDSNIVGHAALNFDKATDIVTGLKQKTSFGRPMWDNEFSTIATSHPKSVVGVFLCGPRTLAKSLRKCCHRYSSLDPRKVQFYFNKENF

[1] = molecular target: Induced myeloid leukemia cell differentiation protein Mcl-1 (Homo sapiens, UniProt Q07820); format: functional
Induced myeloid leukemia cell differentiation protein Mcl-1, sequence (Q07820 whole entry): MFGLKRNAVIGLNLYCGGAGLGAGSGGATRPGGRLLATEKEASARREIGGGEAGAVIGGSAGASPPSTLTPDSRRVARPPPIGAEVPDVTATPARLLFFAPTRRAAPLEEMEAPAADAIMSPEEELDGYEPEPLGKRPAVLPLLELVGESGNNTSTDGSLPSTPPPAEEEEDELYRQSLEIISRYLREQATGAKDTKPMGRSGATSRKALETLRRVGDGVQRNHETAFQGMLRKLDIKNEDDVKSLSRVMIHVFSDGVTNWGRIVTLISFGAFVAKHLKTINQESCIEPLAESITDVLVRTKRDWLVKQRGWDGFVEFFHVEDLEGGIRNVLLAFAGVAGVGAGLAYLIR

[2] = molecular target: FAD-linked sulfhydryl oxidase ALR (Homo sapiens, UniProt P55789); test: inhibitors of human ALR sulfhydryl oxidase, dose response, biochemical, H2O2 detection, luminescence, cherry-pick (AID 493248)
FAD-linked sulfhydryl oxidase ALR, sequence (P55789 whole entry): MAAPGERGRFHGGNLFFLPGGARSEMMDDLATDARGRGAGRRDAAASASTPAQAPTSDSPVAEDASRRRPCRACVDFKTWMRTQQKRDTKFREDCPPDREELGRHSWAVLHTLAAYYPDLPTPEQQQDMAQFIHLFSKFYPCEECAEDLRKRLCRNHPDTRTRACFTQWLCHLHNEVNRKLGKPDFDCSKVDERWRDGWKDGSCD

CHO-K1 = test: Counterscreen for antagonists of the orexin 1 receptor (OX1R; HCRTR1): Homogeneous time resolved fluorescence (HTRF)-based cell-based dose response assay to identify antagonists of the parental CHO-K1 cell line. [Related pubchem assays (depositor defined):AID434989, AID435008, AID463079, AID485270, AID492963, AID492964, AID492965, AID493232, AID504699, AID504701]; format: functional; settings: Cricetulus griseus;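 also: potency for inhibition of ATP-stimulated IP1 production as antagonists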
[3] = enhancers of respiration in Yfh1-depleted yeast, dose response, Friedreich's ataxia, plus single-dose screen (AID 1465); format: functional;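 also: yeast depleted of Yfh1p frataxin homolog grown on glycerol needing respiration; WST-1 tetrazolium dye reduction as measure of cellular dehydrogenase metabolic activity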
[4] = molecular target: Luciferin 4-monooxygenase (Photinus pyralis, UniProt P08659); test: firefly luciferase enzyme inhibitors, dose response, biochemical, luminescence (AID 1891)
Luciferin 4-monooxygenase, sequence (P08659 whole entry): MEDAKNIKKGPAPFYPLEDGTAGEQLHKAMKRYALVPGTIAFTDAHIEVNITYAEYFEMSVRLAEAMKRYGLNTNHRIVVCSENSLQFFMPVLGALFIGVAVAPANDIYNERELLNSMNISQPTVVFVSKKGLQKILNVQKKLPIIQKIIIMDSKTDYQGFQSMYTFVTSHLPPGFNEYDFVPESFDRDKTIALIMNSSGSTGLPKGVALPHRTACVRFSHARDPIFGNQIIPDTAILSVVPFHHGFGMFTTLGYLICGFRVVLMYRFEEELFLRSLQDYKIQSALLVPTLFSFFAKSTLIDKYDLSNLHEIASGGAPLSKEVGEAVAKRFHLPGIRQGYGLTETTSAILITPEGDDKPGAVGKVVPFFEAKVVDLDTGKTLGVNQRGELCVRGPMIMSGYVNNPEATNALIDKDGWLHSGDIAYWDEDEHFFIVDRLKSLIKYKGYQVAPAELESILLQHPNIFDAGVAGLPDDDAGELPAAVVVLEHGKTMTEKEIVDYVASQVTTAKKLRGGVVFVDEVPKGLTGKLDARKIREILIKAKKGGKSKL

[5] = Luminescence Cell-Based Dose Confirmation HTS to Identify Inhibitors of Platelet Dense Granule Release. [Related pubchem assays: 1663 (Primary HTS), 1678 (Summary of Project)]; format: functional
[6] = molecular target: T3, Orexin/Hypocretin receptor type 1 (Homo sapiens, UniProt O43613); test: Fluorescence-based cell-based high throughput dose response assay for antagonists of the orexin 1 receptor (OX1R; HCRTR1). [Related pubchem assays (depositor defined):AID434989, AID435008, AID463079, AID485270, AID492963, AID492964, AID492965, AID493232, AID504717, AID504718]; format: functional
T3 sequence (O43613 whole entry): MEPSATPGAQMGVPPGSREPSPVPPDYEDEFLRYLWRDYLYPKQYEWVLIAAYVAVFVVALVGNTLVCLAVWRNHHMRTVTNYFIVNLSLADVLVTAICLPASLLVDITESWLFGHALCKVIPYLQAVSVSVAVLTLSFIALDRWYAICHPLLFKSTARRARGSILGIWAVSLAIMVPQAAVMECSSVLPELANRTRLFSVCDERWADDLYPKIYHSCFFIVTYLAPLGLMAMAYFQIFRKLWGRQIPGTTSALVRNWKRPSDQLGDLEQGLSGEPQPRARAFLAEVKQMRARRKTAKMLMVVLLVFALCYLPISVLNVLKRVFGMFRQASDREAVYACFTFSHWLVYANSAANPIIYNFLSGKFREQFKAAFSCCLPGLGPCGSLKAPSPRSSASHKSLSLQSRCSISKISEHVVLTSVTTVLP

[7] = Counterscreen for antagonists of the orexin 1 receptor (OX1R; HCRTR1): Fluorescence-based cell-based high throughput dose response assay to identify antagonists of the parental CHO cell line. [Related pubchem assays (depositor defined):AID434989, AID435008, AID463079, AID485270, AID492963, AID492964, AID492965, AID493232, AID504699, AID504701]; format: functional
[8] = molecular target: T3, Orexin/Hypocretin receptor type 1; test: Homogeneous Time Resolved Fluorescence (HTRF)-based cell-based high throughput dose response assay for antagonists of the orexin 1 receptor (OX1R; HCRTR1). [Related pubchem assays (depositor defined):AID434989, AID435008, AID463079, AID485270, AID492963, AID492964, AID492965, AID493232, AID504717, AID504718]; format: functional
[9] = molecular target: DNA damage-inducible transcript 3 protein (Mus musculus, UniProt P35639); format: functional, Cricetulus griseus
DNA damage-inducible transcript 3 protein, sequence (P35639 whole entry): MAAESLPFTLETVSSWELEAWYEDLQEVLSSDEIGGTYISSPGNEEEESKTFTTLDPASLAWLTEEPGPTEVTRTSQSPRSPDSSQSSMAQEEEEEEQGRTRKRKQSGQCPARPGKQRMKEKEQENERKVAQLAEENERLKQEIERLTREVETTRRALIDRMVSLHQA

[10] = cytotoxicity toward NIH3T3 fibroblasts, dose response, counter-screen, cell-based, ATP luminescence, mouse fibroblasts (AID 2010); format: functional;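 also: cells exposed to compound for about 90 hours before reading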
[11] = inhibitors of intracellular T. cruzi replication, confirmation, NIH3T3 host cells, beta-gal luminescence (AID 2044); format: functional, cell-based;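 also: intracellular parasites grown in NIH/3T3 mouse fibroblasts as host cells; luminescent beta-galactosidase reporter signal from transgenic T. cruzi replicating inside host cells; inhibitors lower the luminescence signal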
[12] = cytotoxicity in HPDE-C7 cells, cell-based, fluorescence, HTS (AID 430); format: functional; settings: Homo sapiens
[13] = molecular target: T4, Replicative DNA helicase DnaB (Mycobacterium tuberculosis, UniProt P9WMR3); test: DnaB intein splicing inhibitors, dose response, biochemical, cell-free fluorescence (AID 449749); format: functional
T4 sequence (P9WMR3 whole entry): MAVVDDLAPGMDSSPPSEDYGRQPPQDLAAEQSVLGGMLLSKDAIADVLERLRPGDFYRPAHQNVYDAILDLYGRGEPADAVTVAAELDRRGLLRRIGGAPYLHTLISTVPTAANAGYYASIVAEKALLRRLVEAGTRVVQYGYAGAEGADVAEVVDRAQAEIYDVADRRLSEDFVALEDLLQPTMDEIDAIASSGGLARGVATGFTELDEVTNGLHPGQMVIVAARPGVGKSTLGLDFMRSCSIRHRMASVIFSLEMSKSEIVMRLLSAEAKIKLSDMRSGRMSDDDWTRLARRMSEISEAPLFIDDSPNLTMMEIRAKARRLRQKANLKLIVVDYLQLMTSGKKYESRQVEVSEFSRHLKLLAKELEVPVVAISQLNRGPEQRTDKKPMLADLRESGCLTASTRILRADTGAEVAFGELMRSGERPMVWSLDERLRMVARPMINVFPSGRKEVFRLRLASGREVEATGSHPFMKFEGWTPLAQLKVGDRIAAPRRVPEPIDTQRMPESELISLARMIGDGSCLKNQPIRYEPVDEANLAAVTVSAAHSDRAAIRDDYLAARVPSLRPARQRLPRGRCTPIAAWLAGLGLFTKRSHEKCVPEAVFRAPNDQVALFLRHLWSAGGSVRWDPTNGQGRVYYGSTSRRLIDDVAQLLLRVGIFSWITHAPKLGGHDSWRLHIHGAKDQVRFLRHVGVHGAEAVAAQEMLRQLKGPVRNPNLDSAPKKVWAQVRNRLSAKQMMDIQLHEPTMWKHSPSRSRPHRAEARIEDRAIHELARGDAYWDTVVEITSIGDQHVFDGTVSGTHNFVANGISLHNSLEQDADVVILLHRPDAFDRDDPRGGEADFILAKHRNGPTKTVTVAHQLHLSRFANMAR

Protein RecA = molecular target: T5, Protein RecA (Mycobacterium tuberculosis, UniProt P9WHJ3); test: Fluorescence Cell-Free Homogeneous Dose Retest to Identify Inhibitors of RecA-Intein Splicing Activity. [Related pubchem assays (depositor defined):AID2097, AID2223, AID489010, AID492950]; format: functional
T5 sequence (P9WHJ3 whole entry): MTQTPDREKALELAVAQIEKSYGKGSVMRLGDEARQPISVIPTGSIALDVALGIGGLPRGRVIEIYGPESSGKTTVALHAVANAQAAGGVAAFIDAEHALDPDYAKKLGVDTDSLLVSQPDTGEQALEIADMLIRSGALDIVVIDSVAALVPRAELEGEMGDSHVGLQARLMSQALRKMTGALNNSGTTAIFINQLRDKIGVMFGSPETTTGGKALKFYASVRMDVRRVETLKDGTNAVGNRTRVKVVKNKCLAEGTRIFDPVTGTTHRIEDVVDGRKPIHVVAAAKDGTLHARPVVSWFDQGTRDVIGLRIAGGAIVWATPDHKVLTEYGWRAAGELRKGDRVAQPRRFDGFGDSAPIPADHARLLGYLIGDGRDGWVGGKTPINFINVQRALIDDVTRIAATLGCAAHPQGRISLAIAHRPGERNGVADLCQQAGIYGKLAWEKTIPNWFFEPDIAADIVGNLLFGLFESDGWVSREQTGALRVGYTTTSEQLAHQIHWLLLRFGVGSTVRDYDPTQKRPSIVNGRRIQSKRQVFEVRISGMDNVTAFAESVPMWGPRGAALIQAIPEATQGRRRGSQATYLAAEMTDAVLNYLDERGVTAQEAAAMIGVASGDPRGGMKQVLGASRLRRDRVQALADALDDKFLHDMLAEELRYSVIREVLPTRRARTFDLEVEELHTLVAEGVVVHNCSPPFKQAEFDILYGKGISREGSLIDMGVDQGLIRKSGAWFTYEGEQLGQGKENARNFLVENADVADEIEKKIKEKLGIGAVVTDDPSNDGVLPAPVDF

[14] = cytotoxicity in KRAS-transformed pancreatic duct cells, primary screen, cell-based, fluorescence, HTS (AID 431); format: functional; settings: Homo sapiens;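 also: cell line used: HPDE-C7K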
[15] = Luminescent dose response cell-based high throughput screening assay for inhibitors of the Janus kinase 2 mutant JAK2V617F. [Related pubchem assays: 1446 (Primary screen.), 1521 (Confirmation assay.), 1486 (Counter screen.)]; format: functional
[16] = molecular target: Intestinal-type alkaline phosphatase (Homo sapiens, UniProt P09923); test: human intestinal alkaline phosphatase activators, dose response, biochemical, luminescence, uHTS hits (AID 463120); format: functional
Intestinal-type alkaline phosphatase, sequence (P09923 whole entry, the tested form may be a part): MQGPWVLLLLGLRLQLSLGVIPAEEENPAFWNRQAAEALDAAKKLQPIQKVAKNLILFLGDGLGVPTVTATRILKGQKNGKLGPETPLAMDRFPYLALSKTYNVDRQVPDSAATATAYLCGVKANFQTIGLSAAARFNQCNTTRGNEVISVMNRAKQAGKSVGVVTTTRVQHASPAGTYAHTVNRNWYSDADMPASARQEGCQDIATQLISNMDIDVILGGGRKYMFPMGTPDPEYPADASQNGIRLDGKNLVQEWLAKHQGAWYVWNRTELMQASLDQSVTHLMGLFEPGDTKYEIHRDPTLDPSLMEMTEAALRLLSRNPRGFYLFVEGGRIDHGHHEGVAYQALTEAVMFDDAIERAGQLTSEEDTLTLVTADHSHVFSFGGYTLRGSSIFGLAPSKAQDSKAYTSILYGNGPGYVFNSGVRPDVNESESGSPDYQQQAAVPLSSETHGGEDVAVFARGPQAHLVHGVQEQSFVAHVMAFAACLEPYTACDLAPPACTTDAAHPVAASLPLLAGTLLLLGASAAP

[17] = molecular target: T6, E3 ubiquitin-protein ligase XIAP (Homo sapiens, UniProt P98170); test: SAR analysis of Antagonists of XIAP-Bir3 domain of IAP-family anti-apoptotic proteins. [Related pubchem assays (depositor defined):AID1018, AID1449, AID1513, AID1514, AID1638]
T6 sequence (P98170 whole entry, the tested form may be a part): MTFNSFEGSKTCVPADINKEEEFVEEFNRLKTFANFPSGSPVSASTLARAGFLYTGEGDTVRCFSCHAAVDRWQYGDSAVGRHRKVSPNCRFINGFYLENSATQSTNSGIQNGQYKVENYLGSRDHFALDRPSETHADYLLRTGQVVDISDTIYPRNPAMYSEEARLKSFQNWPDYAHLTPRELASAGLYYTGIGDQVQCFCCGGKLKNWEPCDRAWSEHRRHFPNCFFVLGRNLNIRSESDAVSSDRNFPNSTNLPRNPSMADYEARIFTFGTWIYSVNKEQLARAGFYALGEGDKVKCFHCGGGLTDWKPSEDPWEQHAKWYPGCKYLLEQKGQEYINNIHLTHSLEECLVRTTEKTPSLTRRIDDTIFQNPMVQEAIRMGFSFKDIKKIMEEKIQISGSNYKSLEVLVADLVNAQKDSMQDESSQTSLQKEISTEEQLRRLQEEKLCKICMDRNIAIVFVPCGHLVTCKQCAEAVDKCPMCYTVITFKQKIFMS

[18] = molecular target: T6, E3 ubiquitin-protein ligase XIAP; test: SAR analysis of Antagonists of IAP-family anti-apoptotic proteins. [Related pubchem assays (depositor defined):AID1018, AID1449, AID1513, AID1514, AID1638]
[19] = molecular target: Signal transducer and activator of transcription 1-alpha/beta (Homo sapiens, UniProt P42224); test: STAT3 inhibitors, late-stage profile, late-stage follow-up, cell-based, STAT1 panel, qPCR, cytotoxicity, panel member STAT1 Inhibition (AID 2078)
Signal transducer and activator of transcription 1-alpha/beta, sequence (P42224 whole entry): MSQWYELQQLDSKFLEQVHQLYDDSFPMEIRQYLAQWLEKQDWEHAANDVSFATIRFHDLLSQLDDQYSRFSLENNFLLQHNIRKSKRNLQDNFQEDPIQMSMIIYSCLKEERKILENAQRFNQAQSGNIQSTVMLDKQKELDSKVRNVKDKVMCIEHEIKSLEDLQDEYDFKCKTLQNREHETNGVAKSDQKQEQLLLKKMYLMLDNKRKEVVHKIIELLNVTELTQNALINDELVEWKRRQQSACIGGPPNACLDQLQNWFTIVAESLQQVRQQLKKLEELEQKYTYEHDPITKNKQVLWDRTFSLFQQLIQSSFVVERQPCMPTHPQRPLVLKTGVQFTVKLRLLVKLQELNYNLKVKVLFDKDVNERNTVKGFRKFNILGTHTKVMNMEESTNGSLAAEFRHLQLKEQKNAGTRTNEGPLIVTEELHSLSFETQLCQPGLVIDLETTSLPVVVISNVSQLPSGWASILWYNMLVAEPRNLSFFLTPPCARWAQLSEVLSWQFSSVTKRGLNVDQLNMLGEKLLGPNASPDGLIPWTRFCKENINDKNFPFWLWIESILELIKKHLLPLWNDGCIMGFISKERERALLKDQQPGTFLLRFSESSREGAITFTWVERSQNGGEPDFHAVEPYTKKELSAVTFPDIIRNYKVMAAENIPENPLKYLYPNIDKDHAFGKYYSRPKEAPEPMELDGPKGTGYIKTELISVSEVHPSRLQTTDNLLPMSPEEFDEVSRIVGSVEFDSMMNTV

[20] = molecular target: Signal transducer and activator of transcription 3 (Homo sapiens, UniProt P40763); test: STAT3 inhibitors, late-stage profile, late-stage follow-up, cell-based, STAT1 panel, qPCR, cytotoxicity, panel member STAT3 Inhibition (AID 2078)
Signal transducer and activator of transcription 3, sequence (P40763 whole entry): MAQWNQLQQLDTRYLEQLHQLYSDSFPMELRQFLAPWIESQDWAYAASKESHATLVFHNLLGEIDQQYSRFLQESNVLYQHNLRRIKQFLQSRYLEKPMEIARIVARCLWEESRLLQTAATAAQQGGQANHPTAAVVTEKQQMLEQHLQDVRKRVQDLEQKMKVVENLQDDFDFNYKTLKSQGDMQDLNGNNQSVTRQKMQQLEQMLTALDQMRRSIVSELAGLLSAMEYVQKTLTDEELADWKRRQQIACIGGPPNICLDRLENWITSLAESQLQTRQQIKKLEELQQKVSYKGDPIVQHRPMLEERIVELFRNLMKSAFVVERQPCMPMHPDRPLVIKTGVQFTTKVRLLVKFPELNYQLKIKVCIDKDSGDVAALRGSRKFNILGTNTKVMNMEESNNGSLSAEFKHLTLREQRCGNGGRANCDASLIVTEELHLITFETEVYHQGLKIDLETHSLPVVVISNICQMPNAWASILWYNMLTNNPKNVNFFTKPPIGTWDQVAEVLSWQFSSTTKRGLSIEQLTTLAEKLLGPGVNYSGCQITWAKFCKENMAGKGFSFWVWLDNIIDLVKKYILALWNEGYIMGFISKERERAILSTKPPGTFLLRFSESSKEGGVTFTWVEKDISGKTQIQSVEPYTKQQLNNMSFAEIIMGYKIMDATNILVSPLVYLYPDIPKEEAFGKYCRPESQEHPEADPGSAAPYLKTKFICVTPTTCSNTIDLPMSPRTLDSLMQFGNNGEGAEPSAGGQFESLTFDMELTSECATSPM

[21] = molecular target: Sphingosine 1-phosphate receptor 4 (Homo sapiens, UniProt O95977); test: Late-stage fluorescence dose response cell-based assay to identify agonists of the Sphingosine 1-Phosphate Receptor 4 (S1P4): purchased compounds EC50. [Related pubchem assays (depositor defined):AID1509, AID1523, AID1563, AID1686, AID1701, AID1801]; format: functional
Sphingosine 1-phosphate receptor 4, sequence (O95977 whole entry): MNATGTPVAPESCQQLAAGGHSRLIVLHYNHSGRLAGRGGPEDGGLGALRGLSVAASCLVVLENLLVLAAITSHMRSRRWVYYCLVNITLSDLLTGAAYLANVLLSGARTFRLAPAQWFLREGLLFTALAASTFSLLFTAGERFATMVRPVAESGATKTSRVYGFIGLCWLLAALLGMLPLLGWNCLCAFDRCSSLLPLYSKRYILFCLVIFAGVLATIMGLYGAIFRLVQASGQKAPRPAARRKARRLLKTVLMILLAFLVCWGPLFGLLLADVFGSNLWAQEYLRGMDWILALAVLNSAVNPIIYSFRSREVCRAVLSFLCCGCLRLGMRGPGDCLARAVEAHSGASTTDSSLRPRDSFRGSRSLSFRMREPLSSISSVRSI

CN(C)c1ccc(NC(=O)Nc2ccc3snnc3c2)cc1
EC50 (Ion channel NompC): > 29.9 µM (inactive)
EC50 (Mucolipin-3): > 29.9 µM (not active)
IC50 (Nonstructural protein 1): > 100 µM (active)
IC50 (NADPH oxidase 1): 0.187 µM (active)
IC50 [1]: 0.455 µM (active)
AC50 [2]: 0.204 µM (active)

O=C(N/C(=C/c1cccc(Br)c1)c1nc(S)n[nH]1)c1ccccc1
IC50 (CHO-K1): > 66.2 µM (inactive)
EC50 [3]: > 100 µM (active)
EC50 [4]: 28.9 µM (active)
EC50 [5]: > 112 µM (not active)
IC50 [6]: 16.8 µM (inactive)
IC50 [7]: 33.3 µM (inactive)
IC50 [8]: > 66.2 µM (inactive)

CS(=O)(=O)c1nc(-c2ccco2)cc(C(F)(F)F)n1
Absolute IC50 (CHOP) [9]: 10 µM
EC50 [10]: 3.73 µM (active)
EC50 [11]: 1.61 µM (active)
EC50 [12]: 6.49 µM (active)
AC50 [13]: > 380 µM (inactive)
EC50 (Protein RecA): > 380 µM (inactive)
EC50 [14]: 5.96 µM (active)
IC50 [15]: 0.644 µM (active)

O=C(COc1ccc2ccccc2c1Br)N1CCCCC1
EC50 [16]: > 100 µM (inactive)

CN[C@@H](C)C(=O)N[C@H](C(=O)N1CCC[C@H]1C(=O)Nc1ccc2[nH]ccc2c1)C(C)C
IC50 [17]: 14.3 µM (active)
IC50 [18]: 2 µM (active)

Cc1sc2ncnc(N3CCC(Cc4ccccc4)CC3)c2c1C
IC50 [19]: > 55.7 µM (inactive)
IC50 [20]: > 18.6 µM (inactive)

Cc1ccc(CNC(=O)C(C)OC(=O)c2c(C)nn(Cc3ccccc3)c2Cl)cc1 (configuration not stated)
EC50 [21]: > 50 µM (inactive)
